Each block holds one compound with its values, some of them ahead of it.
Biological target: human DGAT2 (hDGAT2) (Homo sapiens (Human), UniProt Q96PD7)
Assay: DGAT2 Enzymatic Activity Assay
Type: biochemical
Details: membrane prep of Sf-9 insect cells expressing hDGAT2; 13C18-triolein product by LC/MS/MS
Protocol: Sf-9 insect cells were maintained in Grace's insect cell culture medium with 10% heated-inactivated fetal bovine serum, 1% Pluronic F-68 and 0.14 μg/ml Kanamycine sulfate at 27° C. in a shaker incubator. After infection with untagged baculovirus expressing human DGAT2 (hDGAT2) at multiplicity of infection (MOI) 3 for 48 hours, cells were harvested. Cell pellets were suspended in buffer containing 10 mM Tris-HCl pH 7.5, 1 mM EDTA, 250 mM sucrose and Complete Protease Inhibitor Cocktail (Sigma Aldrich), and sonicated on ice. Cell debris were removed by centrifugation at 2000×g for 15 minutes. Membrane fractions were isolated by ultracentrifugation (100,000×g), resuspended in the same buffer, and frozen (−80° C.) for later use. The protein concentration was determined with the Pierce™ BCA Protein Assay Kit (Thermo Fisher Scientific). Expression of protein levels was analyzed by immunoblotting with rabbit anti-DGAT2 antibody (Abcam, ab102831) and donkey anti-rabbit IgG H&L Alexa Fluor® 647 (Abcam, ab150075) followed by detection using Typhoon FLA9000 (GE Healthcare).
LC/MS/MS analyses were performed using Thermal Fisher's LX4-TSQ Vantage system. This system consists of an Agilent binary high-performance liquid chromatography (HPLC) pumps and a TSQ Vantage triple quadrupole MS/MS instrument. For each sample, 2 μL samples from the top organic layer of in-plate liquid-liquid extraction were injected onto a Thermo Betabasic C4 column (2.1 mm×20 mm, 5 μm particle size). The samples were then eluted using the following conditions; mobile phase: Isopropanol: acetonitrile/10 mM ammonium formate=50/35/15 (v/v/v), flow rate: 0.8 mL/min, temperature: 25° C. Data was acquired in positive mode using a heated electrospray ionization (HESI) interface. The operational parameters for the TSQ Vantage MS/MS instrument were a spray voltage of 3000 V, capillary temperature of 280° C., vaporizer temperature 400° C., sheath gas 45 arbitrary unit, Aux gas 10 arbitrary units, S-lens 165 and collision gas 1.0 mTorr. […] (SRM) chromatograms of ^13C18-triolein (Q1: 920.8>Q3:621.3) and internal standard ^13C21-triolein (Q1: 923.8>Q3:617.3) were collected for 33 sec. The peak area was integrated by Xcalibur Quan software. The ratio between the ^13C18 triolein generated in the reaction and spiked in internal standard ^13C21-triolein was used to generate percentage inhibition and IC50 values. Compound percentage inhibition was calculated by the following formula: Inhibition %=1−[(compound response−low control)/(high control−low control)]×100%. Potent compounds were titrated and IC50 were calculated by 4 parameter sigmoidal curve fitting formula.
DGAT2 activity was determined by measuring the amount of enzymatic product ^13C18-triolein (^13C-1,2,3-Tri(cis-9-octadecenoyl)glycerol) using the membrane prep mentioned above. The assay was carried out in ABgene 384-well assay plates in a final volume of 25 μL at rt. The assay mixture contained the following: assay buffer (100 mM Tris·Cl, pH 7.0, 20 mM MgCl2, 5% ethanol), 25 μM of diolein, 5 μM of ^13C oleoyl-CoA and 8 ng/μL of DGAT2 membrane.

Sequence of human DGAT2 (hDGAT2) (Q96PD7 whole entry): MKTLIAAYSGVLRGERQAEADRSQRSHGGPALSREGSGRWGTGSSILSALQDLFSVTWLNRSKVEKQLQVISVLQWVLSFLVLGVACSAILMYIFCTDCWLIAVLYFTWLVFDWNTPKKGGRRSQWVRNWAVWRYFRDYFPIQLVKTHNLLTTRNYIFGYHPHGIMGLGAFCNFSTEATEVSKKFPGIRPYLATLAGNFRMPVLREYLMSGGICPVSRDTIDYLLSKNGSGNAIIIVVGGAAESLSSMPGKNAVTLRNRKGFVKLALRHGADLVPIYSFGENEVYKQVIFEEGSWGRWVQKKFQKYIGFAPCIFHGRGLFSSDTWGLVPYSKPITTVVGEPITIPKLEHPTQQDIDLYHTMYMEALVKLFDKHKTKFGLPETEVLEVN

Compound: CC(C)n1nc(-c2cccc(OC(F)F)c2)c2ncc(C(=O)NC3(C(C)O)CCOC3)cc21 (single isomer, unassigned) [Example 50d, 3-(3-(difluoromethoxy)phenyl)-N-(3-(1-hydroxyethyl)tetrahydrofuran-3-yl)-1-isopropyl-1H-pyrazolo[4,3-b]pyridine-6-carboxamide]
IC50: 150 nM

Compound: CC1(NC(=O)c2cnc3c(-c4cccc(OC(F)F)c4)nn(-c4ncc(F)cn4)c3c2)CS(=O)(=O)C1 [Example 4, 3-(3-(difluoromethoxy)phenyl)-1-(5-fluoropyrimidin-2-yl)-N-(3-methyl-1,1-dioxidothietan-3-yl)-1H-pyrazolo[4,3-b]pyridine-6-carboxamide]
IC50: 17 nM

Compound: CN(C)[C@H]1COC[C@@H]1NC(=O)c1cnc2c(-c3cccc(OC(F)F)c3)cn(-c3ncc(F)cn3)c2c1 [Example 8, 3-(3-(difluoromethoxy)phenyl)-N-((3R,4R)-4-(dimethylamino)tetrahydrofuran-3-yl)-1-(5-fluoropyrimidin-2-yl)-1H-pyrrolo[3,2-b]pyridine-6-carboxamide]
IC50: 119 nM

Compound: CC(C)NC(=O)c1cnc2c(-c3cccc(OC(F)F)c3)cn(-c3ncc(F)cn3)c2c1 [Example 16, 3-(3-(difluoromethoxy)phenyl)-1-(5-fluoropyrirnidin-2-yl)-N-isopropyl-1H-pyrrolo[3,2-b]pyridine-6-carboxamide]
IC50: 209 nM

Compound: CC(CS(C)(=O)=O)NC(=O)c1cnc2c(-c3cccc(OC(F)F)c3)cn(-c3ncc(F)cn3)c2c1 (stereo not drawn) [Example 17, 3-(3-(difluoromethoxy)phenyl)-1-(5-fluoropyrimidin-2-yl)-N-(1-(methylsulfonyl)propan-2-yl)-1H-pyrrolo[3,2-b]pyridine-6-carboxamide]
IC50: 72 nM

Compound: CC(C)(NC(=O)c1cnc2c(-c3cccc(OC(F)F)c3)cn(-c3ncc(F)cn3)c2c1)C(N)=O [Example 18, N-(1-amino-2-methyl-1-oxopropan-2-yl)-3-(3-(difluoromethoxy)phenyl)-1-(5-fluoropyrimidin-2-yl)-1H-pyrrolo[3,2-b]pyridine-6-carboxamide]
IC50: 3420 nM

Compound: O=C(NCC1CC(F)(F)C1)c1cnc2c(-c3cccc(OC(F)F)c3)cn(-c3ncc(F)cn3)c2c1 [Example 19, N-((3,3-difluorocyclobutyl)methyl)-3-(3-(difluoromethoxy)phenyl)-1-(5-fluoropyrimidin-2-yl)-1H-pyrrolo[3,2-b]pyridine-6-carboxamide]
IC50: > 1000 nM

Compound: N[C@@H]1CCC[C@H]1NC(=O)c1cnc2c(-c3cccc(OC(F)F)c3)cn(-c3ncc(F)cn3)c2c1 [Example 21, N-((1R,2R)-2-aminocyclopentyl)-3-(3-(difluoromethoxy)phenyl)-1-(5-fluoropyrimidin-2-yl)-1H-pyrrolo[3,2-b]pyridine-6-carboxamide]
IC50: 6530 nM

Compound: N[C@@H]1COC[C@H]1NC(=O)c1cnc2c(-c3cccc(OC(F)F)c3)cn(-c3ncc(F)cn3)c2c1 [Example 22, N-((3S,4S)-4-aminotetrahydrofuran-3-yl)-3-(3-(difluoromethoxy)phenyl)-1-(5-fluoropyrimidin-2-yl)-1H-pyrrolo[3,2-b]pyridine-6-carboxamide]
IC50: 630 nM

Compound: N[C@@H]1CCC[C@@H]1NC(=O)c1cnc2c(-c3cccc(OC(F)F)c3)cn(-c3ncc(F)cn3)c2c1 [Example 23, N-((1S,2R)-2-aminocyclopentyl)-3-(3-(difluoromethoxy)phenyl)-1-(5-fluoropyrimidin-2-yl)-1H-pyrrolo[3,2-b]pyridine-6-carboxamide]
IC50: 173 nM

Compound: Cn1nc(-c2cccc(OC(F)F)c2)c2ncc(C(=O)NC3(C)CS(=O)(=O)C3)cc21 [Example 26, 3-(3-(difluoromethoxy)phenyl)-1-methyl-N-(3-methyl-1,1-dioxidothietan-3-yl)-1H-pyrazolo[4,3-b]pyridine-6-carboxamide]
IC50: 153 nM

More lines, now with the values ahead:

IC50: 142 nM
Compound: Cn1nccc1-c1nn(-c2ccc(F)cc2)c2cc(C(=O)N[C@@]3(C)CCS(=O)(=O)C3)cnc12 [Example 2, (S)-1-(4-fluorophenyl)-N-(3-methyl-1,1-dioxidotetrahydrothiophen-3-yl)-3-(1-methyl-1H-pyrazol-5-yl)-1H-pyrazolo[4,3-b]pyridine-6-carboxamide]

IC50: 57 nM
Compound: C[C@]1(NC(=O)c2cnc3c(-c4cccc(OC(F)F)c4)nn(-c4ncc(F)cn4)c3c2)CCS(=O)(=O)C1 [Example 3, (S)-3-(3-(difluoromethoxy)phenyl)-1-(5-fluoropyrimidin-2-yl)-N-(3-methyl-1,1-dioxidotetrahydrothiophen-3-yl)-1H-pyrazolo[4,3-b]pyridine-6-carboxamide]

IC50: 11 nM
Compound: C[C@]1(NC(=O)c2cc3c(cn2)c(-c2cccc(OC(F)F)c2)nn3-c2ccc(F)cc2)CCS(=O)(=O)C1 [Example 5, (S)-3-(3-(difluoromethoxy)phenyl)-1-(4-fluorophenyl)-N-(3-methyl-1,1-dioxidotetrahydrothiophen-3-yl)-1H-pyrazolo[4,3-c]pyridine-6-carboxamide]

IC50: 89 nM
Compound: C[C@]1(NC(=O)c2cc3c(cn2)c(-c2cncc(OC(F)F)c2)nn3-c2ccc(F)cc2)CCS(=O)(=O)C1 [Example 6, (S)-3-(5-(difluoromethoxy)pyridin-3-yl)-1-(4-fluorophenyl)-N-(3-methyl-1,1-dioxidotetrahydrothiophen-3-yl)-1H-pyrazolo[4,3-c]pyridine-6-carboxamide]

IC50: 3700 nM
Compound: C[C@]1(NC(=O)c2ccc3c(-c4ccccc4Cl)cn(-c4ccc(F)cc4)c3n2)CCS(=O)(=O)C1 [Example 10, (S)-3-(2-chlorophenyl)-1-(4-fluorophenyl)-N-(3-methyl-1,1-dioxidotetrahydrothiophen-3-yl)-1H-pyrrolo[2,3-b]pyridine-6-carboxamide]

IC50: 186 nM
Compound: C[C@]1(NC(=O)c2cnc3c(-c4ccccc4Cl)cn(-c4ccc(F)cc4)c3c2)CCS(=O)(=O)C1 [Example 11, (S)-3-(2-chlorophenyl)-1-(4-fluorophenyl)-N-(3-methyl-1,1-dioxidotetrahydrothiophen-3-yl)-1H-pyrrolo[3,2-b]pyridine-6-carboxamide]

IC50: 356 nM
Compound: C[C@@]1(NC(=O)c2cnc3c(-c4ccccc4Cl)cn(-c4ccc(F)cc4)c3c2)CCS(=O)(=O)C1 [Example 12, (R)-3-(2-chlorophenyl)-1-(4-fluorophenyl)-N-(3-methyl-1,1-dioxidotetrahydrothiophen-3-yl)-1H-pyrrolo[3,2-b]pyridine-6-carboxamide]

IC50: 89 nM
Compound: Cn1nccc1-c1cn(-c2ccc(F)cc2)c2cc(C(=O)N[C@@]3(C)CCS(=O)(=O)C3)cnc12 [Example 13, (S)-1-(4-fluorophenyl)-N-(3-methyl-1,1-dioxidotetrahydrothiophen-3-yl)-3-(1-methyl-1H-pyrazol-5-yl)-1H-pyrrolo[3,2-b]pyridine-6-carboxamide]

IC50: 292 nM
Compound: C[C@]1(NC(=O)c2cc3c(cn2)c(-c2ccccc2Cl)cn3-c2ccc(F)cc2)CCS(=O)(=O)C1 [Example 14, (S)-3-(2-chlorophenyl)-1-(4-fluorophenyl)-N-(3-methyl-1,1-dioxidotetrahydrothiophen-3-yl)-1H-pyrrolo[3,2-c]pyridine-6-carboxamide]

IC50: 23 nM
Compound: C[C@]1(NC(=O)c2cc3c(cn2)c(-c2cccc(OC(F)F)c2)cn3-c2ccc(F)cc2)CCS(=O)(=O)C1 [Example 15, (S)-3-(3-(difluoromethoxy)phenyl)-1-(4-fluorophenyl)-N-(3-methyl-1,1-dioxidotetrahydrothiophen-3-yl)-1H-pyrrolo[3,2-c]pyridine-6-carboxamide]

Source: patent US20240059700A1, “NOVEL DIACYLGLYCERIDE O-ACYLTRANSFERASE 2 INHIBITORS” (Merck Sharp & Dohme LLC, priority 2020, published 2024)
